According to article PMC12152147, “DDB1 engagement defines the selectivity of S656 analogs for cyclin K degradation over CDK inhibition” (EMBO Reports, 2025):
Values joined by “and” are separate entries in the source; they are usually repeats but may differ in a detail not shown here. Identical values can stand only once. Like-named read-outs stand apart in the source and are kept apart here.

Key:
[1] = tested on: OCI-AML5 cells expressing shRNA targeting CUL4A or CUL4B; experiment: Dose response in OCI-AML5 expressing shRNAs targeting CUL4A, CUL4B or control; type: cell-based, H. sapiens; conditions: ratio of IC50 in shCUL4A vs shCTRL OCI-AML5 cells
OCI-AML5 cells = experiment: Dose-response proliferative assay in OCI-AML5 (4 days, CellTiterGlo); type: cell-based, H. sapiens; conditions: Homo sapiens
How it was run: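 Viability assessed after 4 days of compound exposure at 37 °C, 5% CO2. Compounds tested as 8 dilutions (1:4, 10 μM to 0.5 nM) on 300 OCI-AML5 cells/well grown in αMEM with 10% heat-inactivated FBS and 10 ng/mL GM-CSF.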

primary AML specimens = experiment: Dose-response assays in primary AML specimens (6 days, CellTiterGlo); type: cell-based, human; conditions: Homo sapiens, 144 h, 6 days, read-out: IC50
Method: Freshly thawed primary AML specimens were used for chemical screens. Cryopreserved cells were thawed at 37 °C in IMDM containing 20% FBS and DNase I (100 μg/mL). Cells were resuspended in IMDM supplemented with 15% BIT (BSA, insulin, transferrin; StemCell Technologies), 100 ng/mL SCF, 50 ng/mL FLT3L, 20 ng/mL IL3, 20 ng/mL G-CSF, 10^−4 mol/L b-mercaptoethanol, gentamicin (50 μg/mL), ciprofloxacin (10 μg/mL), SR1 (500 nmol/L) and UM729 (500 nmol/L). Cells were plated in 384-well white plates, 5000 cells per well in 50 μL. Compounds were dissolved in DMSO, diluted in media immediately before use and added to seeded cells at the unique concentration of 1 μM. Control wells received DMSO (0.1%) only. Cell viability was evaluated after 6 days in culture using the CellTiterGlo assay according to the manufacturer’s instruction. Percentage of inhibition for dose response curves was calculated as 100 – (100 × (mean luminescence [compound]/mean luminescence [DMSO])). Dose response curves were generated using nonlinear regression in GraphPad Prism version.
Dose-response assays in primary AML specimens were performed as in chemical screen (see above) with the exception that compounds were tested in serial dilution (8 dilutions, 1:4, 10 μM down to 0.5 nM). Dose-response assays in OCI-AML5 cell line were conducted similarly with the following modifications: 300 cells per well were seeded in 50 μL of cell line media and cell viability was evaluated after 4 days in culture.

CDK1 = target: T1, CDK1 (Homo sapiens, UniProt P06493); experiment: CDK1 in vitro kinase activity, single concentration 1 μM; type: biochemical; conditions: single concentration 1 μM
T1 construct: purchased BPS Bioscience 79597
Method: (§1) Kinase activity was assessed using the kinase assay kits from BPS Bioscience for CDK1, CDK9 and CDK12 with Kinase Glo MAX in duplicates. Compounds were tested at a single concentration of 1 μM for CDK1 and CDK9 activity, and in a dilution ranging from 0.64 nM to 50 μM for CDK12 activity. Chemiluminescence was read using the Neo Synergy BioTek plate reader.

[2] = tested on: OCI-AML5 cells expressing shRNAs targeting CDK1, 2, 4, 7, 9, cyclin K; experiment: Dose response in OCI-AML5 expressing shRNAs targeting CDK1, 2, 4, 7, 9, cyclin K or control; type: cell-based, H. sapiens
cyclin KeGFP = experiment: Cyclin KeGFP reporter system (eGFP/mCherry MFI by flow cytometry);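 for % degradation cyclin K-eGFP: 10 μM compound for 3 h relative to DMSO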; type: cell-based, H. sapiens
How it was run: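 Degradation read as eGFP-to-mCherry MFI ratio relative to DMSO controls, from flow cytometry of the selected G7 clone of OCI-AML5 cells transduced with the cyclin KeGFP reporter.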

CDK9/CyclinT = target: T2, CDK9/CyclinT (Homo sapiens, UniProt P50750); experiment: CDK9/CyclinT in vitro kinase activity, single concentration 1 μM; type: biochemical; conditions: single concentration 1 μM
T2 construct: purchased BPS Bioscience 79628
Method: as §1

T1 sequence (P06493 whole entry): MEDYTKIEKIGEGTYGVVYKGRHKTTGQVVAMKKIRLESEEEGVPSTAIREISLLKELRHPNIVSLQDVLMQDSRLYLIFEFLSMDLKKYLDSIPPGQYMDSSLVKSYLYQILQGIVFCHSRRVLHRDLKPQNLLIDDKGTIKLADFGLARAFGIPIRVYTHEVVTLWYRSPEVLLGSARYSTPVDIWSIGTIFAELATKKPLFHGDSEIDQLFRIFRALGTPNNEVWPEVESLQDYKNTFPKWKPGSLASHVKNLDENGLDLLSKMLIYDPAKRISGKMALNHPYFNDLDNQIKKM
T1 sequence (P14635 whole entry partner): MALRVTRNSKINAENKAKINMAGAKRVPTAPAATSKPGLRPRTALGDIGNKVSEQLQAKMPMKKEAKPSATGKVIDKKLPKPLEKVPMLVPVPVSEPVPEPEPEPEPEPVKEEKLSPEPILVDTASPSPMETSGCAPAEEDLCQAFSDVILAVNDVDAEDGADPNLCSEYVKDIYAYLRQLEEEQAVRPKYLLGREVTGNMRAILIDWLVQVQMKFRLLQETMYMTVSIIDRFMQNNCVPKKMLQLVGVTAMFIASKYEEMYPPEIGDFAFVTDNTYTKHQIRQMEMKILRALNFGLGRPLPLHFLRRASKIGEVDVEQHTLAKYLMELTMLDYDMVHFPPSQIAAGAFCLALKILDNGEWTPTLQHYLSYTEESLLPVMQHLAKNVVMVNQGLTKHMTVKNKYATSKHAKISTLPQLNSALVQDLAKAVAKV
T2 sequence (P50750 whole entry): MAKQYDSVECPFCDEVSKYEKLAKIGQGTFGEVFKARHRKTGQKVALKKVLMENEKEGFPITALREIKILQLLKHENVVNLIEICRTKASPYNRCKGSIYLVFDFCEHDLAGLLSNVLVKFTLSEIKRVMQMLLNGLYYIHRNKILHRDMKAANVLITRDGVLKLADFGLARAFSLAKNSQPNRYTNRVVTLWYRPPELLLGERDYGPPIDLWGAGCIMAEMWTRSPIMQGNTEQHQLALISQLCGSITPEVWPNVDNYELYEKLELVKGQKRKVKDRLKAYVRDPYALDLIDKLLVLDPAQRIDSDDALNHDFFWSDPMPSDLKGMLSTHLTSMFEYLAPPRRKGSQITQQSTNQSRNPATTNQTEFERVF
T2 sequence (O60563 whole entry partner): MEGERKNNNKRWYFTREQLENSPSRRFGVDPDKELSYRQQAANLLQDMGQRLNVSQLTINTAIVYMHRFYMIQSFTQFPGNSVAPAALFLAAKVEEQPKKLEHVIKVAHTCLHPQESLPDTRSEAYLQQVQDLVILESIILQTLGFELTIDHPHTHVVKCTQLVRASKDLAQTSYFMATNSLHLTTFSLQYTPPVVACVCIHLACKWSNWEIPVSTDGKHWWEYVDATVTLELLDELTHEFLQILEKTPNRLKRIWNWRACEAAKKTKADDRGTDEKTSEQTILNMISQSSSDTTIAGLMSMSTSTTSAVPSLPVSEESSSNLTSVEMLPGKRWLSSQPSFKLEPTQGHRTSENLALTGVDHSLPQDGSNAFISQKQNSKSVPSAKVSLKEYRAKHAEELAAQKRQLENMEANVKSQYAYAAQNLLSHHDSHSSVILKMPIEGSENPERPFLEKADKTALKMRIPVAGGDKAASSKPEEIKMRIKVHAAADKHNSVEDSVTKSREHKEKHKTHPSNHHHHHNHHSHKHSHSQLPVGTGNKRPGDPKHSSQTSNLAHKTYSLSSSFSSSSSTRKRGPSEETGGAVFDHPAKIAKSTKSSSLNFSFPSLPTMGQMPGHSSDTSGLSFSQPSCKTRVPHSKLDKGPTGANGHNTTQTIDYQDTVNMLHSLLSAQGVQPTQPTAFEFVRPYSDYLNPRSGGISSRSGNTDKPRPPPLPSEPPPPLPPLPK

Cn1cc(-n2cnc3c(NCc4nc5cc(Cl)c(Cl)cc5[nH]4)nc(N4CCOCC4)nc32)cn1 [SR4835]
Ratio shCUL4A/shCTRL [1]: 4.77
IC50 (OCI-AML5 cells; OCI-AML-5, OCI-AML5 cells, read-out: IC50 in AML5): 18 nM
IC50 (primary AML specimens; primary AML specimen 03H109): 23.9 nM
IC50 (primary AML specimens; primary AML specimen 04H055): 37.9 nM
IC50 (primary AML specimens; primary AML specimen 04H096): 37.8 nM
IC50 (primary AML specimens; primary AML specimen 04H138): 46.2 nM
IC50 (primary AML specimens; primary AML specimen 05H113): 37.3 nM
IC50 (primary AML specimens; primary AML specimen 05H149): 45.5 nM
IC50 (primary AML specimens; primary AML specimen 05H193): 42.9 nM
IC50 (primary AML specimens; primary AML specimen 06H088): 40.2 nM
IC50 (primary AML specimens; primary AML specimen 06H117): 34.3 nM
IC50 (primary AML specimens; primary AML specimen 06H151): 28.5 nM
IC50 (primary AML specimens; primary AML specimen 07H003): 44.1 nM
IC50 (primary AML specimens; primary AML specimen 07H131): 99 nM
IC50 (primary AML specimens; primary AML specimen 07H144): 31.9 nM
IC50 (primary AML specimens; primary AML specimen 07H155): 55.9 nM
IC50 (primary AML specimens; primary AML specimen 08H018): 41.3 nM
IC50 (primary AML specimens; primary AML specimen 08H021): 29.8 nM
IC50 (primary AML specimens; primary AML specimen 08H056): 70.5 nM
IC50 (primary AML specimens; primary AML specimen 08H063): 125 nM
IC50 (primary AML specimens; primary AML specimen 08H085): 38.9 nM
IC50 (primary AML specimens; primary AML specimen 08H108): 41.7 nM
IC50 (primary AML specimens; primary AML specimen 08H118): 33.5 nM
IC50 (primary AML specimens; primary AML specimen 09H016): 35.3 nM
IC50 (primary AML specimens; primary AML specimen 09H070): 124 nM
IC50 (primary AML specimens; primary AML specimen 10H014): 38 nM
IC50 (primary AML specimens; primary AML specimen 10H046): 38.8 nM
IC50 (primary AML specimens; primary AML specimen 10H107): 37.1 nM
IC50 (primary AML specimens; primary AML specimen 10H127): 48 nM
IC50 (primary AML specimens; primary AML specimen 10H161): 42.2 nM
IC50 (primary AML specimens; primary AML specimen 10H174): 38.2 nM
IC50 (primary AML specimens; primary AML specimen 11H008): 45.7 nM
IC50 (primary AML specimens; primary AML specimen 11H019): 41 nM
IC50 (primary AML specimens; primary AML specimen 11H170): 141 nM
IC50 (primary AML specimens; primary AML specimen 11H217): 48.8 nM
IC50 (primary AML specimens; primary AML specimen 11H232): 39.8 nM
IC50 (primary AML specimens; primary AML specimen 12H033): 61.4 nM
IC50 (primary AML specimens; primary AML specimen 12H055): 44.7 nM
IC50 (primary AML specimens; primary AML specimen 12H148): 44.4 nM
IC50 (primary AML specimens; primary AML specimen 13H053): 55.9 nM
IC50 (primary AML specimens; primary AML specimen 15H045): 28.4 nM
IC50 (primary AML specimens; primary AML specimen 17H065): 59.1 nM
inhibition at 1 µM (CDK1): 0%
IC50 ([2]; Homo sapiens, OCI-AML-5, 96 h, read-out: IC50, sh CDK1, OCI-AML5, 4 days): 25.2 nM
IC50 ([2]; Homo sapiens, OCI-AML-5, 96 h, read-out: IC50, sh CDK2, OCI-AML5, 4 days): 22.8 nM
IC50 ([2]; Homo sapiens, OCI-AML-5, 96 h, read-out: IC50, sh CDK4, OCI-AML5, 4 days): 17.4 nM
IC50 ([2]; Homo sapiens, OCI-AML-5, 96 h, read-out: IC50, sh CDK7, OCI-AML5, 4 days): 20.2 nM
IC50 ([2]; Homo sapiens, OCI-AML-5, 96 h, read-out: IC50, sh CDK9, OCI-AML5, 4 days): 21.4 nM
IC50 ([2]; Homo sapiens, OCI-AML-5, 96 h, read-out: IC50, sh Cyclin K, OCI-AML5, 4 days): 5.7 nM
IC50 ([2]; Homo sapiens, OCI-AML-5, 96 h, read-out: IC50, sh ctrl, OCI-AML5, 4 days): 21.2 nM
Class ([2]; class from shRNA IC50 profile and cyclin K-eGFP degradation): 1
IC50 ([2]; read-out: IC50, sh CDK1, OCI-AML5, 4 days): 22.7 nM and 35.9 nM
IC50 ([2]; read-out: IC50, sh CDK2, OCI-AML5, 4 days): 21.1 nM and 33.4 nM
IC50 ([2]; read-out: IC50, sh CDK4, OCI-AML5, 4 days): 20.7 nM and 17.8 nM
IC50 ([2]; read-out: IC50, sh CDK7, OCI-AML5, 4 days): 23.7 nM and 34.5 nM
IC50 ([2]; read-out: IC50, sh CDK9, OCI-AML5, 4 days): 17.3 nM and 16.7 nM
IC50 ([2]; read-out: IC50, sh Cyclin K, OCI-AML5, 4 days): 8.31 nM and 5.07 nM
IC50 ([2]; read-out: IC50, sh ctrl, OCI-AML5, 4 days): 17.9 nM and 15.9 nM
MFI of cyclin KeGFP over mCherry (cyclin KeGFP; OCI-AML5 G7 clone, 3 h, 10 μM, normalized to DMSO (=100)): 16.0 and 15.3 and 15.4
% degradation cyclin K-eGFP (cyclin KeGFP; cyclin K-eGFP reporter): 84%
inhibition at 1 µM (CDK9/CyclinT): 0%

CN(CCOCCOCCN)c1ccc(CC(=O)Nc2ncc(SCc3cccnc3)s2)cc1 [UOM-005790]
IC50 (OCI-AML5 cells; OCI-AML-5, 96 h, 4 days incubation, read-out: IC50 OCI-AML5): 680 nM
